Results from patent US20210145801A1, “THERAPY FOR PROTEIN MISFOLDING DISEASE” (WREN THERAPEUTICS LIMITED, priority 2018, published 2021).
“Also recorded” adds a separate entry of the source. Like-named read-outs stand apart in the source and are kept apart here.

Key:
[1] = system: AD worms (GMC101); settings: GMC101, C. elegans, in vivo
Experimental: Briefly, Netoglitazone stocks (5 mM in 100% DMSO) were used at an appropriate concentration to seed 9-cm NGM plates. Plates were then placed in a laminar flow hood at room temperature (22° C.) for up to 4 hours to dry. C. elegans cultures were then transferred onto media seeded with compound as L4 stage or Day 3 for late treatments and incubated at 24° for the whole experiment. Experiments were carried out at different Netoglitazone concentrations ranging from 0.05 to 500 μM in 1% DMSO. As controls, plates seeded only with 1% DMSO were used.

[2] = system: Aβ1-42Neur worms (CL2355); assay: Chemotaxis assay in Aβ1-42Neur worms; type: in vivo, C. elegans; settings: 5 μM; 5 days at 24° C.; day 6 of adulthood
Experimental: Chemotaxis measurements were carried out as previously described (O. Margie, C. Palmer, I. Chin-Sang, C. elegans Chemotaxis Assay. J Vis Exp, e50069 (2013)) and as illustrated in FIG. 6C. Briefly, adult synchronized transgenic C. elegans CL2355 worms and wild-type healthy worms were incubated with or without 5 μM Netoglitazone for 5 days 24° C. At day 6 of adulthood the worms were then collected, washed with M9 buffer three times, and assayed in 9 cm screening plates (1.9% agar, 1 mM CaCl2), 1 mM MgSO4, and 25 mM phosphate buffer, pH 6.0) seeded with 50 μl of a 10× culture of Op50 Bacteria or sterile water, as attractant or test conditions, respectively and in combination with 1 μl of 1M Levamisole. Ca. 200 worms were placed in the central quadrant of the plate and incubated at 24° C. for 8 h, after which the chemotaxis index (CI) was scored. The CI was defined as follows (O. Margie et al (2013)):
(number of worms at the attractant locations−number of worms at the control locations)/total number of worms on the plate
Worms that were remaining in the central quadrant were excluded.

[3] = Pharmacokinetic study, single oral dose; type: in vivo, male, Swiss Albino mice; settings: 11.5 mg/kg p.o.; for concentration at 6 h: oral
Experimental: The pharmacokinetic profile was assessed in male, Swiss Albino mice in a discrete study using a single per oral dose of Netoglitazone (11.5 mg/kg, 30 μmoles/kg) formulated as a solution in 10% NMP/90% Solutol (as a 20% v/v solution in PBS). The dosing concentration was 2.3 mg/mL with a dosing volume of 5.0 mL/kg. Data were derived from the average of 3 animals per timepoint (terminal sampling). Plasma samples were collected at 0.25, 0.50, 1.0, 2.0, 4.0, 6.0, 8.0 and 24 hours by protein precipitation method with acetonitrile. Brain samples were collected at 6.0 and 24 hours by brain homogenisation and protein precipitation method with acetonitrile. Cerebrospinal fluid (CSF) samples were collected at 6.0 and 24 hours by protein precipitation method with acetonitrile. Samples were analysed using UHPLC with TOF mass spectrometry using electrospray ionisation.

[4] = male, Swiss Albino, mouse, plasma, po, single dose

**Q.** For `O=C1NC(=O)C(Cc2ccc3cc(OCc4ccccc4F)ccc3c2)S1` (stereo not shown) [Netoglitazone], which “Maximum tolerable dose in AD worms” value [1] is on record?
**A.** less than 50 μM

**Q.** What about the “Chemotaxis index of Aβ1-42Neur worms” value [2] of the same compound?
**A.** chemotaxis index was significantly improved; also recorded: significantly improves the (A) chemotaxis index

**Q.** And the “Brain penetration across the blood brain barrier” value [3]?
**A.** good brain penetration across the blood brain barrier

**Q.** And the concentration at 6 h ([3]; male, Swiss Albino, mouse, CSF, read-out: CSF levels)?
**A.** 50 ng/mL

**Q.** And the concentration at 6 h ([3]; male, Swiss Albino, mouse, brain homogenate, read-out: Total brain levels)?
**A.** 8540 ng/g

**Q.** And the Cmax [3, 4]?
**A.** 14400 ng/mL

**Q.** And the Tmax [3, 4]?
**A.** 6 h
